The results in this text go back to US8895695B2, “Template-fixed beta-hairpin peptidomimetics with CXCR4 antagonizing activity” (priority 2003, dated 2014).

The test system of data set [1] is human red blood cells (hRBC). The experiment in a line: Hemolysis. Type of data set: cell-based. A digest of the protocol:
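Percent lysis taken as OD540 of peptide-treated sample over OD540 of the water/0.1% Triton X-100 full-lysis control, with PBS giving 0%. Peptides at 100 μM exposed to PBS-washed human RBCs (20% v/v) for 1 hour at 37° C. before centrifugation and 20-fold dilution of supernatant.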

Another data set can be described thus: in vitro. To be noted: human.
Another data set deals with CXCR4 (Homo sapiens, UniProt P61073). The experiment in a line: Ca2+-assay method 2 (Flexstation, SDF-1 induced calcium mobilization). To be noted: method 2 (Ex. 54-160), mouse pre-B cell line 300-19 with human CXCR4, 10 nM SDF-1; read-out: IC50 (nM) Ca^2+ assay. Type of data set: cell-based. Also on record: expressed in transfected cells; host or cells: mouse pre-B cell line 300-19. On the technique in general: Calcium assays in cells follow changes in intracellular calcium, usually with a dye or a luminescent sensor.
CXCR4, sequence (P61073 whole entry): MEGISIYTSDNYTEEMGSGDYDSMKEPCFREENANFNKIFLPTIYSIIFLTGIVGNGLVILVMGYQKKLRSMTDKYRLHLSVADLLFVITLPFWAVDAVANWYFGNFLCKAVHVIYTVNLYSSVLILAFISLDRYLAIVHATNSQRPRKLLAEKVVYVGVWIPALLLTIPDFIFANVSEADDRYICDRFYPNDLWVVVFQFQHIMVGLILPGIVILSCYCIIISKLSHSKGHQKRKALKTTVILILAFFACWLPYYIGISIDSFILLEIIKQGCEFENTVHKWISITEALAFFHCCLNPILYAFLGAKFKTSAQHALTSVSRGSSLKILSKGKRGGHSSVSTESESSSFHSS

Bridge positions count the residues as written; N and C are the ends. Square brackets hold non-standard residues; d marks the D form. Peptide text beside a SMILES is read from it. 2Nal = N[C@@H](Cc1ccc2ccccc2c1)C(=O)O; Cit = NC(=O)NCCC[C@H](N)C(=O)O
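For GI50 in this document: MTT reduction read as absorbance at 595 nm, blank-corrected and expressed as percent growth relative to the time-zero cell reading, triplicate wells per concentration.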

The GI50 is the concentration giving 50% growth inhibition. One may read the IC50 as the point on the concentration scale where inhibition reaches its midpoint. As for `N=C(N)NCCC[C@@H]1NC(=O)[C@@H]2CSSC[C@H](NC(=O)[C@H](Cc3ccc4ccccc4c3)NC(=O)[C@H](CCCNC(=N)N)NC(=O)[C@H](CCCNC(=N)N)NC(=O)[C@H]3CCCN3C(=O)CNC1=O)C(=O)N[C@@H](Cc1ccc(O)cc1)C(=O)N[C@@H](CCC(N)=O)C(=O)N[C@@H](CC(N)=O)C(=O)N1CCC[C@@H]1C(=O)N1CCC[C@H]1C(=O)N[C@@H](Cc1ccc(O)cc1)C(=O)N[C@@H](CCCNC(=N)N)C(=O)N[C@@H](CCCNC(N)=O)C(=O)N2` [Ex. 84] (cyclo(YR[Cit]CRG[dP]RR[2Nal]CYQN[dP]P); disulfide 4-11), the Hemolysis at 100 μM in data set [1] was 0%. Besides, the 50% growth inhibitory concentration (GI50) at 48 h in the data set “in vitro” is 62 µM. Moreover, at CXCR4, the IC50 was 3.9 nM.
For `N=C(N)NCCC[C@@H]1NC(=O)[C@@H]2CSSC[C@H](NC(=O)[C@H](Cc3ccc4ccccc4c3)NC(=O)[C@H](CCCNC(=N)N)NC(=O)[C@H](Cc3ccc(O)cc3)NC(=O)[C@H]3CCCN3C(=O)CNC1=O)C(=O)N[C@@H](Cc1ccc(O)cc1)C(=O)N[C@@H](CCC(N)=O)C(=O)N[C@@H](CCCCN)C(=O)N1CCC[C@@H]1C(=O)N1CCC[C@H]1C(=O)N[C@@H](Cc1ccc(O)cc1)C(=O)N[C@@H](CCCNC(=N)N)C(=O)N[C@@H](CCCNC(N)=O)C(=O)N2` [Ex. 54] (cyclo(YR[Cit]CRG[dP]YR[2Nal]CYQK[dP]P); disulfide 4-11) the same measures were 0%, 54 µM and 6.9 nM.
For the molecule `N=C(N)NCCC[C@@H]1NC(=O)[C@@H]2CSSC[C@H](NC(=O)[C@H](Cc3ccc4ccccc4c3)NC(=O)[C@H](CCCNC(=N)N)NC(=O)[C@H](CCCNC(=N)N)NC(=O)[C@H]3CCCN3C(=O)CNC1=O)C(=O)N[C@@H](Cc1ccc(O)cc1)C(=O)N[C@@H](CCC(N)=O)C(=O)N[C@@H](CCCCN)C(=O)N1CCC[C@@H]1C(=O)N1CCC[C@H]1C(=O)N[C@@H](Cc1ccc(O)cc1)C(=O)N[C@@H](CCCNC(=N)N)C(=O)N[C@@H](Cc1c[nH]c3ccccc13)C(=O)N2` [Ex. 73] (cyclo(YRWCRG[dP]RR[2Nal]CYQK[dP]P); disulfide 4-11), in data set [1], the Hemolysis at 100 μM came out at 0.3%. For the same molecule, the GI50 at 48 h in the data set “in vitro” stood at 20 µM. Further, the IC50 at CXCR4 was 8.8 nM.
Consider `N=C(N)NCCC[C@@H]1NC(=O)[C@@H]2CSSC[C@H](NC(=O)[C@H](Cc3ccc4ccccc4c3)NC(=O)[C@H](CCCNC(=N)N)NC(=O)[C@H](CCCNC(=N)N)NC(=O)[C@H]3CCCN3C(=O)CNC1=O)C(=O)N[C@@H](Cc1ccc(O)cc1)C(=O)N[C@@H](CCCNC(N)=O)C(=O)N[C@@H](CCCCN)C(=O)N1CCC[C@@H]1C(=O)N1CCC[C@H]1C(=O)N[C@@H](Cc1ccc(O)cc1)C(=O)N[C@@H](CCCNC(=N)N)C(=O)N[C@@H](CCC(N)=O)C(=O)N2` [Ex. 130] (cyclo(YRQCRG[dP]RR[2Nal]CY[Cit]K[dP]P); disulfide 4-11), for which, in data set [1], the Hemolysis at 100 μM was determined as 0%. For the same molecule, in the data set “in vitro”, the GI50 at 48 h amounted to 62 µM. Besides, at CXCR4, the IC50 was 4.1 nM.
For `N=C(N)NCCC[C@@H]1NC(=O)[C@@H]2CSSC[C@H](NC(=O)[C@H](Cc3ccc4ccccc4c3)NC(=O)[C@H](CCCNC(=N)N)NC(=O)[C@H](CCCNC(=N)N)NC(=O)[C@H]3CCCN3C(=O)CNC1=O)C(=O)N[C@@H](Cc1ccc(O)cc1)C(=O)N[C@@H](CCC(N)=O)C(=O)N[C@@H](CCCCN)C(=O)N1CCC[C@@H]1C(=O)N1CCC[C@H]1C(=O)N[C@@H](CO)C(=O)N[C@@H](CCCNC(=N)N)C(=O)N[C@@H](CCCNC(N)=O)C(=O)N2` [Ex. 89] (cyclo(SR[Cit]CRG[dP]RR[2Nal]CYQK[dP]P); disulfide 4-11), in that order: 0%, 50 µM and 0.5 nM.
For `CC[C@H](C)[C@@H]1NC(=O)[C@H](CCCNC(=N)N)NC(=O)[C@H](Cc2ccc(O)cc2)NC(=O)[C@@H]2CCCN2C(=O)[C@H]2CCCN2C(=O)[C@H](CCCCN)NC(=O)[C@H](CCC(N)=O)NC(=O)[C@H](Cc2ccc(O)cc2)NC(=O)[C@@H]2CSSC[C@H](NC1=O)C(=O)N[C@@H](CCCNC(=N)N)C(=O)NCC(=O)N1CCC[C@@H]1C(=O)N[C@@H](CCCNC(=N)N)C(=O)N[C@@H](CCCNC(=N)N)C(=O)N[C@@H](Cc1ccc3ccccc3c1)C(=O)N2` [Ex. 71] (cyclo(YRICRG[dP]RR[2Nal]CYQK[dP]P); disulfide 4-11) the same measures were 0.1%, 34 µM and 2.7 nM.
With `CC(C)[C@@H]1NC(=O)[C@H](CCCNC(=N)N)NC(=O)[C@H](Cc2ccc(O)cc2)NC(=O)[C@@H]2CCCN2C(=O)[C@H]2CCCN2C(=O)[C@H](CCCCN)NC(=O)[C@H](CCC(N)=O)NC(=O)[C@H](Cc2ccc(O)cc2)NC(=O)[C@@H]2CSSC[C@H](NC1=O)C(=O)N[C@@H](CCCNC(=N)N)C(=O)NCC(=O)N1CCC[C@@H]1C(=O)N[C@@H](CCCNC(=N)N)C(=O)N[C@@H](CCCNC(=N)N)C(=O)N[C@@H](Cc1ccc3ccccc3c1)C(=O)N2` [Ex. 98] (cyclo(YRVCRG[dP]RR[2Nal]CYQK[dP]P); disulfide 4-11), the Hemolysis at 100 μM in data set [1] was 1%. This molecule came in with a 50% growth inhibitory concentration (GI50) at 48 h in the data set “in vitro” of 41 µM. The IC50 at CXCR4 is 3.9 nM.
For `N=C(N)NCCC[C@@H]1NC(=O)[C@@H]2CSSC[C@H](NC(=O)[C@H](Cc3c[nH]c4ccccc34)NC(=O)[C@H](CCCNC(=N)N)NC(=O)[C@H](CCCNC(=N)N)NC(=O)[C@H]3CCCN3C(=O)CNC1=O)C(=O)N[C@@H](Cc1ccc(O)cc1)C(=O)N[C@@H](CCCNC(N)=O)C(=O)N[C@@H](CCCCN)C(=O)N1CCC[C@@H]1C(=O)N1CCC[C@H]1C(=O)N[C@@H](Cc1ccccc1)C(=O)N[C@@H](CCCNC(=N)N)C(=O)N[C@@H](CCCNC(N)=O)C(=O)N2` [Ex. 107] (cyclo(FR[Cit]CRG[dP]RRWCY[Cit]K[dP]P); disulfide 4-11), in that order: 0.4%, 50 µM and 3.8 nM.
For `CC[C@H](C)[C@@H]1NC(=O)[C@@H]2CCCN2C(=O)[C@H]2CCCN2C(=O)[C@H](CCCCN)NC(=O)[C@H](CCC(N)=O)NC(=O)[C@H](Cc2ccc(O)cc2)NC(=O)[C@@H]2CSSC[C@H](NC(=O)[C@H](CCCNC(N)=O)NC(=O)[C@H](CCCNC(=N)N)NC1=O)C(=O)N[C@@H](CCCNC(=N)N)C(=O)NCC(=O)N1CCC[C@@H]1C(=O)N[C@@H](CCCNC(=N)N)C(=O)N[C@@H](CCCNC(=N)N)C(=O)N[C@@H](Cc1ccc3ccccc3c1)C(=O)N2` [Ex. 65] (cyclo(IR[Cit]CRG[dP]RR[2Nal]CYQK[dP]P); disulfide 4-11) the same measures were 0.2%, 65 µM and 3.9 nM.
In the case of `CC(C)[C@@H]1NC(=O)[C@@H]2CCCN2C(=O)[C@H]2CCCN2C(=O)[C@H](CCCCN)NC(=O)[C@H](CCC(N)=O)NC(=O)[C@H](Cc2ccc(O)cc2)NC(=O)[C@@H]2CSSC[C@H](NC(=O)[C@H](CCCNC(N)=O)NC(=O)[C@H](CCCNC(=N)N)NC1=O)C(=O)N[C@@H](CCCNC(=N)N)C(=O)NCC(=O)N1CCC[C@@H]1C(=O)N[C@@H](CCCNC(=N)N)C(=O)N[C@@H](CCCNC(=N)N)C(=O)N[C@@H](Cc1ccc3ccccc3c1)C(=O)N2` [Ex. 90] (cyclo(VR[Cit]CRG[dP]RR[2Nal]CYQK[dP]P); disulfide 4-11), in data set [1], the Hemolysis at 100 μM is 0.1%. In the data set “in vitro”, this molecule displayed a concentration for 50% growth inhibition (GI50) at 48 h of 57 µM. Moreover, the half-maximal inhibitory concentration (IC50) at CXCR4 worked out at 19.5 nM.
For `N=C(N)NCCC[C@@H]1NC(=O)[C@@H]2CSSC[C@H](NC(=O)[C@H](Cc3ccc4ccccc4c3)NC(=O)[C@H](CCCNC(=N)N)NC(=O)[C@H](CCCNC(=N)N)NC(=O)[C@H]3CCCN3C(=O)CNC1=O)C(=O)N[C@@H](Cc1ccc(O)cc1)C(=O)N[C@@H](CCC(N)=O)C(=O)N[C@@H](CO)C(=O)N1CCC[C@@H]1C(=O)N1CCC[C@H]1C(=O)N[C@@H](Cc1ccc(O)cc1)C(=O)N[C@@H](CCCNC(=N)N)C(=O)N[C@@H](CCCNC(N)=O)C(=O)N2` [Ex. 87] (cyclo(YR[Cit]CRG[dP]RR[2Nal]CYQS[dP]P); disulfide 4-11) the same measures were 0%, 64 µM and 3.5 nM.
`N=C(N)NCCC[C@@H]1NC(=O)[C@@H]2CSSC[C@H](NC(=O)[C@H](Cc3ccc4ccccc4c3)NC(=O)[C@H](CCCNC(=N)N)NC(=O)[C@H](CCCNC(=N)N)NC(=O)[C@H]3CCCN3C(=O)CNC1=O)C(=O)N[C@@H](Cc1ccc(O)cc1)C(=O)N[C@@H](CCC(N)=O)C(=O)N[C@@H](CCCCN)C(=O)N1CCC[C@@H]1C(=O)N1CCC[C@H]1C(=O)N[C@@H](Cc1ccc(O)cc1)C(=O)N[C@@H](CCCNC(=N)N)C(=O)N[C@@H](Cc1c[nH]cn1)C(=O)N2` [Ex. 70] (cyclo(YRHCRG[dP]RR[2Nal]CYQK[dP]P); disulfide 4-11) displayed a Hemolysis at 100 μM in data set [1] of 0.2%. This molecule also registered a GI50 at 48 h in “in vitro” of 40 µM. The 50% inhibitory concentration (IC50) at CXCR4 came out at 19.5 nM.
For `N=C(N)NCCC[C@@H]1NC(=O)[C@@H]2CSSC[C@H](NC(=O)[C@H](Cc3ccc4ccccc4c3)NC(=O)[C@H](CCCNC(=N)N)NC(=O)[C@H](CCCNC(=N)N)NC(=O)[C@H]3CCCN3C(=O)CNC1=O)C(=O)N[C@@H](Cc1ccc(O)cc1)C(=O)N[C@@H](Cc1ccc(O)cc1)C(=O)N[C@@H](CCCCN)C(=O)N1CCC[C@@H]1C(=O)N1CCC[C@H]1C(=O)N[C@@H](Cc1ccc(O)cc1)C(=O)N[C@@H](CCCNC(=N)N)C(=O)N[C@@H](CCCNC(N)=O)C(=O)N2` [Ex. 59] (cyclo(YR[Cit]CRG[dP]RR[2Nal]CYYK[dP]P); disulfide 4-11) the same measures were 0.1%, 33 µM and 7.8 nM.
